Results on three compounds are retold here after US8871751B2, “Compositions and methods relating to nuclear hormone and steroid hormone receptors including inhibitors of estrogen receptor alpha-mediated gene expression and inhibition of breast cancer” (The Board of Trustees of the University of Illinois, priority 2008, dated 2014).

The target of this assay is T1, human ERα binding to flcERE (Homo sapiens, UniProt P03372).
T1 construct: Full-length FLAG-tagged human ERα was expressed and purified as described previously (27); FLAG; made in house
T1 sequence (P03372 1-595): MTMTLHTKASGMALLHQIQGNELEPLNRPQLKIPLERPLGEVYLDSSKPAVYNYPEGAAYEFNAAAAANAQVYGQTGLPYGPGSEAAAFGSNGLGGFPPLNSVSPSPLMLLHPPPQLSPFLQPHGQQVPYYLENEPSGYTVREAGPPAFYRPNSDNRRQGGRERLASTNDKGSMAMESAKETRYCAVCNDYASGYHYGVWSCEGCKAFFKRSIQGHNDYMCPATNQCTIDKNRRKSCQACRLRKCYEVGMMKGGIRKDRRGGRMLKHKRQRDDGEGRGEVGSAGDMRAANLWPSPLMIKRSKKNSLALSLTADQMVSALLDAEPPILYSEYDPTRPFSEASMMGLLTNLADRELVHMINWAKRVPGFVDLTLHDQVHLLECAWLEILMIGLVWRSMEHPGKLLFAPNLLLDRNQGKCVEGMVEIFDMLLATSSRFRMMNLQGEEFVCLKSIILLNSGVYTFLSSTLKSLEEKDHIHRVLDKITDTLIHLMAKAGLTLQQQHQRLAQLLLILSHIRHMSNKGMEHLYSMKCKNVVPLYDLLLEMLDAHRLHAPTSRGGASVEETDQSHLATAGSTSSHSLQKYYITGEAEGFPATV
Nature of the assay: FAMA: inhibition of ERα binding to flcERE. The following applies: for IC50: FAMA; for inhibition of binding of ERα to the flcERE: 5 μM TPBM. As to the method:
Prior to screening, the 10 mM library stocks were diluted to produce replica libraries in 384-well plates containing each small molecule at 0.25 mM (in DMSO). In our initial studies we were concerned that forming the flcERE-ERα complex first and then adding the candidate small molecule inhibitors would miss small molecules that bind at the interface. We therefore screened using the “sequential” method in which the candidate small molecules were first incubated with ERα and followed by addition of the flcERE. The assay for binding of ERα to the flcERE is a modification of our earlier assay (27). Assays were carried out at room temperature in black wall 384-well microplates (Greiner/Bio-One) in a total volume of 10 μl in buffer containing 20 mM Tris pH 7.5, 10% glycerol, 0.2 mM EDTA, 2 mM DTT, 100 mM KCl, 0.5 ng/μl poly dl:dC, […] bovine serum albumin and 100 nM 17β-estradiol (E2). For high throughput screening, a master mix without ERα and probe was prepared at 4° C. The master mix was divided into 2 parts. ERα was added to one part to 5 nM in the final assays. 7 μl of the ERα-containing mix was then dispensed into each well of a 384-well plate on ice. 100 nl of the compounds being tested was then added using a pin-transporter (V & P Scientific, Inc, CA) to a final concentration of 2.5 μM. The samples were mixed using the pin-transporter and sedimented by centrifugation for 2 min. at 4° C. and incubated on ice for 10 min. The flcERE probe was added to the other aliquot of the mix to 1 nM. 3 μl of the mix containing the flcERE probe was added to each well containing ERα and the test compound. The samples were mixed using the pin-transporter, the plates were briefly centrifuged and incubated at room temperature for 10 min. and fluorescence anisotropy (FA) was measured using a BMG PheraStar (BMG Labtech) microplate reader (module: 485 520) with excitation at 485λ and emission at 520λ. To identify small molecules that were highly fluorescent, or quench fluorescence, fluorescence intensity was also measured.
Dose response curves for selected compounds were carried out as described for the HTS screen except that each well contained the indicated concentration of test compound. PR assays were carried out in the same buffer used for ERα assays and contained 1 nM flcPRE and 11 nM PR-B and 100 nM progesterone. The buffer used for AR was similar but also contained 5 μM ZnCl, 5 mM NaF, 0.6 μM CHAPS and 100 nM dihydrotestosterone. AR assays contained 1 nM flcARE and 50 nM full-length wild-type AR.

Where [1] appears, read: binding to HRE, 5 concentrations 0.5-10 μM, sequential method, read-out: IC50 ERα.

“And” between values parts separate entries of the source, which are not always exact repeats. Equal values may be shown once. Read-outs that look alike come from different tables or passages of the source.

On to `CN1CCC(C#N)c2ccccc21` (stereo not drawn) [Compound 1529], for which, under setting [1], the IC50 came to 4 µM.

In the case of `Cn1c(=O)c2nc(CSCc3ccccc3)[nH]c2n(C)c1=O` [Compound 95910, 8-Benzylsulfanylmethyl-1,3-dimethyl-3,7-dihydro-purine-2,6-dione], the “inhibition of binding of ERα to the flcERE” value runs as follows: (absence of zinc) 76±7%; (presence of 50 μM zinc) 68±6%. For the same compound, the IC50 is 3 µM under setting [1]; ~3 µM and 3.5 µM (read-out: IC50 for inhibition of ERα binding to the flcERE).

As to `CN(C)CCCn1c2c3ccccc3ccc2c2oc(=O)c3ccccc3c21` [Compound 638432], the IC50 under setting [1] is 2.5 µM.

Usually IC50 stands for the concentration needed to halve the response being measured.
